Measurements published in patent publication US20240034733A1, “KRAS G12D INHIBITORS” (Mirati Therapeutics, Inc., priority 2020, published 2024).

Tests used:
KRas G12D = biological target: T1, KRas G12D (Homo sapiens, UniProt P01116, G12D); experiment: KRas G12D Surface Plasmon Resonance (SPR) Binding Assay; settings: Biacore T200, 20° C., 1:1 binding model, read-out: KD (nM), Determination of KRas G12D KD
T1 construct: Avidin-tag (so in the source)
Experimental: This Example illustrates that exemplary compounds of the present invention bind to KRas G12D as measured by surface plasmon resonance (SPR).
Briefly, 1 L of 1.05×HBS-Mg buffer (262.5 mM BioUltra Hepes, pH 7.5, 157.5 mM NaCl, 105 mM MgCl2, 0.525 mM TCEP, 0.0305% Brij-35) was prepared and filter sterilized using a 0.22 μm bottle top filter. Approximately 50 mL of 1.05×HBS-Mg buffer was removed and saved for future dilutions. A 50 mL aliquot of DMSO (Sigma Aldrich DMSO Lot. #SHBK2079) was added and continued to stir for 10 minutes, creating the final 1.0×HBS-Mg buffer (250 mM BioUltra Hepes pH 7.5, 150 mM NaCl, 100 mM MgCl2, 0.5 mM TCEP, 0.03% Brij-35).
Biacore T200 instrument was primed using 1.0×HBS-Mg buffer before docking a GE Streptavidin (SA) chip and then primed two additional times prior to beginning the immobilization step. All immobilized protein mixtures were created using 3-5 mg/mL Biotinylated Avidin-tagged KRAS protein using the following immobilization settings: SA chip type, 1 flow cells per cycle, 720 second contact time, and 5 μL/min flow rate. Normalization of the detector was also performed during the immobilization step using the GE BiaNormalize solution.
All compounds were diluted to 10 mM in 100% DMSO prior to being diluted 20× in 1.05× buffer. Another 10× dilution was created using 1.0× buffer prior to performing a series of 3×dilutions to create a compound concentration curve using the following assay settings: 20° C. analysis temperature, General Settings=10 Hz data collection rate and multi-detection; Assay Steps=all set to LMW kinetics; Cycle Types=LMW kinetics (60 s contact time, 120 s dissociation time, 100 μL/min flow rate, extra wash after injection with 50% DMSO, flow path 1, 2, 3, 4); Flow path detection=2−1, 4−3). Data evaluation was performed using the Biacore T200 Evaluation software and data fit to 1:1 binding model.

[1] = biological target: T2, GDP-loaded recombinant human KRAS G12D (Homo sapiens, UniProt P01116, G12D); experiment: KRas G12D Binding Assay (TR-FRET displacement of Cy5 labelled tracer); settings: 60 minute incubation at 22° C.
T2 construct: corresponding to amino acids 1:169, produced at Array BioPharma; biotin (biotinylated); made in house
Experimental: This Example illustrates that exemplary compounds of the present invention bind to KRas G12D and are capable of displacing a labeled tracer ligand occupying the KRas G12D binding site.
The ability of a compound to bind to KRAS G12D was measured using a TR-FRET displacement assay. Biotinylated GDP-loaded recombinant human KRAS G12D (corresponding to amino acids 1:169, produced at Array BioPharma) was incubated with a custom-made Cy5 labelled tracer, europium labelled streptavidin and compound (2% DMSO final) in buffer (50 mM HEPES [pH 7.5], 5 mM MgCl2, 0.005% Tween-20 & 1 mM DTT). After a 60 minute incubation at 22° C., the reaction was measured using a PerkinElmer EnVision multimode plate reader via TR-FRET dual wavelength detection, and the percent of control (POC) calculated using a ratiometric emission factor. […] The POC values were fit to a 4-parameter logistic curve and the IC50 value was determined as the concentration where the curve crosses 50 POC.

[2] = test system: KRas G12D-mediated phosphorylation of ERK; experiment: Inhibition of KRas G12D-mediated phosphorylation of ERK in AGS cells; assay type: cell-based; settings: Homo sapiens; AGS cells expressing G12D, 3 hours, phospho-ERK normalized to GAPDH
Experimental: AGS cells (ATCC CRL-1739) expressing G12D were grown in DMEM medium supplemented with 10% fetal bovine serum, 10 mM HEPES, and Penicillin/Streptomycin. Cells were plated in tissue culture treated 96 well plates at a density of 40,000 cells/well and allowed to attach for 12-14 hours. Diluted compounds were then added in a final concentration of 0.5% DMSO. After 3 hours, the medium was removed, 150 μl of 4.0% formaldehyde was added and the plates incubated at room temperature for 20 minutes. The plates were washed with PBS, and permeabilized with 150p of ice cold 100% methanol for 10 minutes. Non-specific antibody binding to the plates was blocked using 100 μL Licor blocking buffer (Li-Cor Biotechnology, Lincoln NE) for 1 hour at room temperature.
The amount of phosho-ERK was determined using an antibody specific for the phosphorylated form of ERK and compared to the amount of GAPDH. Primary antibodies used for the detection were added as follows: Phospho-ERK (Cell Signaling cs-9101) diluted 1:500 and GAPDH (Millipore MAB374) diluted 1:5000 in Licor block+0.05% Tween 20. The plates were incubated for 2 hours at room temperature. The plates were washed with PBS+0.05% Tween 20.
Secondary antibodies used to visualize primary antibodies were added as follows: Anti-rabbit-680 diluted 1:1000 and Anti-mouse-800 diluted 1:1000 both in Licor block+0.05% Tween20, and were incubated for 1 hour at room temperature. The plates were washed with PBS +0.05% Tween 20. A 100 μl aliquot of PBS was added to each well and the plates were read on a Li-Cor Odyssey CLX plate reader phospho-ERK (Thr202/Tyr204) signal was normalized to the GAPDH signal for each well and percent of DMSO control values were calculated. IC50 values were generated using a 4-parameter fit of the dose response curve

T1 sequence (P01116 1-188 isoform P01116-2 G12D): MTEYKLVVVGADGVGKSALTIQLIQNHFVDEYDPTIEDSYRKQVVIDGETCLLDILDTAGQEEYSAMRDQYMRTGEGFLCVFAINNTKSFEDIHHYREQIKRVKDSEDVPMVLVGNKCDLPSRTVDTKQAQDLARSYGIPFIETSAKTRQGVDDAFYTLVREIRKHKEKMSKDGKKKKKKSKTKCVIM
T2 sequence (P01116 1-169 isoform P01116-2 G12D): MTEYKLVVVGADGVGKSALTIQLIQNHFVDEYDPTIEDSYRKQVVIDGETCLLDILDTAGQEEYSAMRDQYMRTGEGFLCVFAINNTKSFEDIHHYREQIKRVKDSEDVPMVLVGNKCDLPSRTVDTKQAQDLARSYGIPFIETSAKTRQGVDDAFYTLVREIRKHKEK

Row | SMILES | Kd (KRas G12D) | IC50 [1] | IC50 [2]
1 | Fc1c(-c2cccc3cccc(Cl)c23)ccc2c(N3C[C@H]4CC[C@@H](C3)N4)nc(OCC34CCCN3CCC4)nc12 [Example 2, 4-((1R,5S)-3,8-diazabicyclo[3.2.1]octan-3-yl)-7-(8-chloronaphthalen-1-yl)-8-fluoro-2-((tetrahydro-1H-pyrrolizin-7a(5H)-yl)methoxy)quinazoline] | 8 nM | 6.1 nM | 4540 nM
2 | CN1CCC[C@H]1COc1nc(N2C[C@H]3CC[C@@H](C2)N3)c2cc(Cl)c(-c3cc(O)cc4ccccc34)c(F)c2n1 [Example 7, 4-(4-((1R,5S)-3,8-diazabicyclo[3.2.1]octan-3-yl)-6-chloro-8-fluoro-2-(((S)-1-methylpyrrolidin-2-yl)methoxy)quinazolin-7-yl)naphthalen-2-ol] | 9 nM | 11.2 nM | 1420 nM
3 | CN1CCC[C@H]1COc1nc(N2C[C@H]3CC[C@@H](C2)N3)c2ccc(-c3cc(O)cc4ccccc34)c(F)c2n1 [Example 8, 4-(4-((1R,5S)-3,8-diazabicyclo[3.2.1]octan-3-yl)-8-fluoro-2-(((S)-1-methylpyrrolidin-2-yl)methoxy)quinazolin-7-yl)naphthalen-2-ol] | 3 nM | 4.3 nM | 271 nM
4 | CN1CCC[C@H]1COc1nc(N2C[C@H]3CC[C@@H](C2)N3)c2ccc(-c3cc(O)cc4ccccc34)cc2n1 [Example 10, 4-(4-((1R,5S)-3,8-diazabicyclo[3.2.1]octan-3-yl)-2-(((S)-1-methylpyrrolidin-2-yl)methoxy)quinazolin-7-yl)naphthalen-2-ol] | 19 nM | 22.9 nM | 5660 nM
5 | CN1CCC[C@H]1COc1nc(N2CC3CCC2CN3)c2cc(Cl)c(-c3cc(O)cc4ccccc34)c(F)c2n1 (stereo partly drawn) [Example 11, 4-((7R)-4-(2,5-diazabicyclo[2.2.2]octan-2-yl)-6-chloro-8-fluoro-2-(((S)-1-methylpyrrolidin-2-yl)methoxy)quinazolin-7-yl)naphthalen-2-ol] | 16 nM | 10.4 nM | 2840 nM
6 | CN1CCC[C@H]1COc1nc(N2CCNC3(CC3)C2)c2ccc(-c3cc(O)cc4ccccc34)c(F)c2n1 [Example 12, (S)-4-(8-fluoro-2-((1-methylpyrrolidin-2-yl)methoxy)-4-(4,7-diazaspiro[2.5]octan-7-yl)quinazolin-7-yl)naphthalen-2-ol] | 110 nM | – | 5560 nM
7 | CN1CCC[C@H]1COc1nc(N2C[C@H]3CC[C@@H]2CN3)c2cnc(-c3cc(O)cc4ccccc34)c(F)c2n1 [Example 15, 4-(4-((1R,4R)-2,5-diazabicyclo[2.2.2]octan-2-yl)-8-fluoro-2-(((S)-1-methylpyrrolidin-2-yl)methoxy)pyrido[4,3-d]pyrimidin-7-yl)naphthalen-2-ol] | 93 nM | – | 7120 nM
8 | COc1ccc(Oc2cc3c(N4C[C@H]5CC[C@@H](C4)N5)nc(OC[C@@H]4CCCN4C)nc3cc2-c2cc(O)cc3ccccc23)c(Cl)c1 [Example 18, 4-(4-((1R,5S)-3,8-diazabicyclo[3.2.1]octan-3-yl)-6-(2-chloro-4-methoxyphenoxy)-2-(((S)-1-methylpyrrolidin-2-yl)methoxy)quinazolin-7-yl)naphthalen-2-ol] | – | 11.5 nM | 1370 nM
9 | CN1CCC[C@H]1COc1nc(N2C[C@H]3CC[C@@H](C2)N3)c2cc(Oc3ccccc3Cl)c(-c3cc(O)cc4ccccc34)cc2n1 [Example 19, 4-(4-((1R,5S)-3,8-diazabicyclo[3.2.1]octan-3-yl)-6-(2-chlorophenoxy)-2-(((S)-1-methylpyrrolidin-2-yl)methoxy)quinazolin-7-yl)naphthalen-2-ol] | – | 1.3 nM | 1700 nM
10 | CN1CCC[C@H]1COc1nc(N2C[C@H]3CC[C@@H](C2)N3)c2cc(Oc3ccccc3C#N)c(-c3cc(O)cc4ccccc34)cc2n1 [Example 20, 2-((4-((1R,5S)-3,8-diazabicyclo[3.2.1]octan-3-yl)-7-(3-hydroxynaphthalen-1-yl)-2-(((S)-1-methylpyrrolidin-2-yl)methoxy)quinazolin-6-yl)oxy)benzonitrile] | – | 1.6 nM | 2160 nM
11 | N#Cc1ccccc1Oc1cc2c(N3C[C@H]4CC[C@@H](C3)N4)nc(OCC34CCCN3CCC4)nc2cc1-c1cc(O)cc2ccccc12 [Example 21, 2-((4-((1R,5S)-3,8-diazabicyclo[3.2.1]octan-3-yl)-7-(3-hydroxynaphthalen-1-yl)-2-((tetrahydro-1H-pyrrolizin-7a(5H)-yl)methoxy)quinazolin-6-yl)oxy)benzonitrile] | – | 1 nM | 1270 nM
12 | Oc1cc(-c2cc3nc(OC[C@@]45CCCN4C[C@H](F)C5)nc(N4C[C@H]5CC[C@@H](C4)N5)c3cc2Oc2ccccc2Cl)c2c(Cl)cccc2c1 [Example 23, 4-(4-((1R,5S)-3,8-diazabicyclo[3.2.1]octan-3-yl)-6-(2-chlorophenoxy)-2-(((2R,7aS)-2-fluorotetrahydro-1H-pyrrolizin-7a(5H)-yl)methoxy)quinazolin-7-yl)-5-chloronaphthalen-2-ol] | – | 6.6 nM | 264 nM
13 | CN1CCC[C@H]1COc1nc(N2C[C@H]3CC[C@@H](C2)N3)c2cc(Oc3ccccc3C#N)c(-c3cc(O)cc4ccccc34)c(F)c2n1 [Example 24, 2-((4-((1R,5S)-3,8-diazabicyclo[3.2.1]octan-3-yl)-8-fluoro-7-(3-hydroxynaphthalen-1-yl)-2-(((S)-1-methylpyrrolidin-2-yl)methoxy)quinazolin-6-yl)oxy)benzonitrile] | – | 1.4 nM | 377 nM
14 | CN1CCC[C@H]1COc1nc(N2C[C@H]3CC[C@@H](C2)N3)c2cc(Oc3c(Cl)cccc3C#N)c(-c3cc(O)cc4ccccc34)c(F)c2n1 [Example 25, 2-((4-((1R,5S)-3,8-diazabicyclo[3.2.1]octan-3-yl)-8-fluoro-7-(3-hydroxynaphthalen-1-yl)-2-(((S)-1-methylpyrrolidin-2-yl)methoxy)quinazolin-6-yl)oxy)-3-chlorobenzonitrile] | – | 5.3 nM | 784 nM
15 | CN1CCC[C@H]1COc1nc(N2C[C@H]3CC[C@@H](C2)N3)c2cc(Oc3cccc(F)c3C#N)c(-c3cc(O)cc4ccccc34)c(F)c2n1 [Example 26, 2-((4-((1R,5S)-3,8-diazabicyclo[3.2.1]octan-3-yl)-8-fluoro-7-(3-hydroxynaphthalen-1-yl)-2-(((S)-1-methylpyrrolidin-2-yl)methoxy)quinazolin-6-yl)oxy)-6-fluorobenzonitrile] | – | 7.4 nM | 3540 nM
